According to PMC11375437, “Selective labelling of GBA2 in cells with fluorescent β-D-arabinofuranosyl cyclitol aziridines” (Chemical Science, 2024):

Target: T1, GBA3 (Homo sapiens, UniProt Q9H227)
T1 construct: expressed in transfected cells; host or cells: HEK293T GBA1/GBA2 KO, GBA3 overexpressed
T1 sequence (Q9H227 1-469): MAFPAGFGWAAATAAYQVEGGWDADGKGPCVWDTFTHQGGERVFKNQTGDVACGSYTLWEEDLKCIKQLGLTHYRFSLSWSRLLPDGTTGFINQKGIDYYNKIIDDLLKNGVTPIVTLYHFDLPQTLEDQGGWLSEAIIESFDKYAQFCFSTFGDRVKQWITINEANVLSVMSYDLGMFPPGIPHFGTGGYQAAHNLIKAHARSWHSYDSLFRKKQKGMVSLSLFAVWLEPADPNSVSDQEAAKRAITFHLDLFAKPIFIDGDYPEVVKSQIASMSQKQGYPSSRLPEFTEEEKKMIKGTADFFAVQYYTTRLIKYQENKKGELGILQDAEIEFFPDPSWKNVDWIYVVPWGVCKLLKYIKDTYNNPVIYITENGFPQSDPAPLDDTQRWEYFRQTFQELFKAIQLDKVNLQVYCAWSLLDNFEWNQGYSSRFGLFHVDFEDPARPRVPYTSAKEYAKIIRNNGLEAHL
Experiment: 4MU fluorogenic substrate assay for apparent IC50, GBA3
Format: biochemical
Conditions: 30 min pre-incubation, 4MU-β-D-Glc
Description: To identify an ABP that selectively labels human GBA2 over GBA1 and GBA3, a library of cyclophellitol-based ABPs with varying configurations (ESI Fig. S1 ^†) was screened for their selectivity towards human retaining β-glucosidases. For this purpose, we initially assessed the inhibition properties of the compounds using recombinant human GBA1 (rhGBA1, imiglucerase), lysates of cells overexpressing GBA2 or GBA3 (both in combination with knockout of the other retaining β-glucosidases). In a preliminary screen, enzymes were pre-incubated for 30 min with the tested compounds, followed by the addition of the fluorogenic substrate, 4MU-β-D-Glc, and subsequent quantification of released fluorescent 4MU after 30 minutes. This screening brought our attention to a new set of β-D-Araf cyclitol aziridines as potential GBA2 inhibitors. […] On the other hand, the biotin-tagged β-D-Araf compound 6 is a poor inhibitor of all three glucosidases (apparent IC50 > 8 μM). Arabinofuranosyl cyclitol 12–20 with various configurations (α-L-Araf and β-L-Araf) were also evaluated (ESI Fig. S1 ^†).
Recombinant human GBA1 (rhGBA1, Imiglucerase) was kindly provided by Sanofi Genzyme (Cambridge, MA, USA). 4-Methylumbelliferyl-β-D-glucopyranoside substrates were purchase from Glycosynth (Warrington Cheshire, UK). Protein concentration was measured using the Pierce BCA assay kit (Thermo Fisher Scientific, Waltham, MA, USA). Harvested cells (cell pellets), cell lysates and tissue homogenates not used directly were stored at -80 °C.
HEK293T (CRL‐3216™) cells were purchased from ATCC (Manassas, VA, USA). HEK293T cells were cultured in DMEM medium (Sigma‐Aldrich), supplied with 10% (v/v) FCS, 0.1% (w/v) penicillin/streptomycin and 1% (v/v) Glutamax, under 37 °C and 5% or 7% CO2. […]
2.3 Generation of cells genetically modified for β-glucosidase expression For overexpression of the different β-glucosidases, "wildtype" HEK293T cells, HEK293T cells with GBA2 knockout (KO) or HEK293T cells with both GBA1 and GBA2 KO were used, following by the overexpression (OE) of targeted β-glucosidases using the constructs as described in references.1,2 Either GBA2 or GBA3 were overexpressed in GBA1/GBA2 KO HEK293T (generated by the CRISPR/Cas9 method2) to generate GBA1/2 KOs with GBA2 (or GBA3) for overexpression in HEK293T cells as indicated, or using "wildtype" HEK293T cells containing endogenous GBA1 and GBA2 to overexpress both GBA2 and GBA3, these were generated as described in our previous report.1,2 […]
Cells were cultured with the method described above to 80-90% confluency, and were isolated, washed with Dulbecco′s phosphate buffered saline (PBS) and subsequently collected using the following method.3 HEK293T and RPE-1 cells were easily detached from the culture plate by trypsin treatment after which some DMEM medium was added. The cells were collected by pipetting and DMEM medium was removed by centrifuging. The cells were washed with cold PBS three times, after which they were centrifuged to remove PBS and then stored at –80 °C for further use or lysed in potassium phosphate buffer (K2HPO4-KH2PO4, 25 mM, pH 6.5, supplemented with 0.1% (v/v) Triton X-100 and protease inhibitor cocktail (EDTA-free, Roche, Basel, Switzerland)) by sonication with a Polytron PT 1300D sonicator (Kinematica, Luzern, Switzerland). After sonication, lysed mixtures were centrifuged at 10,000 x g for 3 min at 4°C, and the supernatants where desired β-glucosidases exist were used for the experiment.
2.5 4MU fluorogenic substrate assay for apparent IC50 determination
4MU fluorogenic substrate assays (using recombination human rhGBA1 or lysates of HEK293T cells) were conducted in 96-well plates at 37 °C. Samples were diluted with McIlvaine buffer (150 mM citric acid-Na2HPO4) to a final volume of 25 μL, at the appropriate pH for each enzyme. Assays were performed by incubating the samples with 100 μL 4-methylumbelliferyl-β-D-glucopyranoside substrate diluted in McIlvaine buffer for a period of 30 min. […]

[1] = GBA1/GBA2 KO GBA3 OE HEK293T cell lysate, pH 6.0, n = 3 for β-D-Araf, n = 1 for α-L-Araf and β-L-Araf

| Compound | IC50 [1] [µM] | IC50 [µM] |
| --- | --- | --- |
| CC1=CC(C)=[N+]2C1=C(CCCCc1cn(CCCCCCCCN3[C@@H]4[C@H](CO)[C@@H](O)[C@H](O)[C@@H]43)nn1)c1c(C)cc(C)n1[B-]2(F)F (some centres unmarked) [ABP 3] | > 10 | – |
| COc1ccc(C2=[N+]3C(=C(CCCCc4cn(CCCCCCCCN5[C@@H]6[C@H](CO)[C@@H](O)[C@H](O)[C@@H]65)nn4)c4ccc(-c5ccc(OC)cc5)n4[B-]3(F)F)C=C2)cc1 (some centres unmarked) [ABP 4] | > 10 | – |
| CN1/C(=C/C=C/C=C/C2=[N+](CCCCCC(=O)NCc3cn(CCCCCCCCN4[C@@H]5[C@H](CO)[C@@H](O)[C@H](O)[C@@H]54)nn3)c3ccccc3C2(C)C)C(C)(C)c2ccccc21 (some centres unmarked) [ABP 5] | 1.52 ± 0.159 | – |
| O=C(CCCC[C@@H]1SC[C@@H]2NC(=O)N[C@@H]21)NCc1cn(CCCCCCCCN2[C@@H]3[C@H](CO)[C@@H](O)[C@H](O)[C@@H]32)nn1 (some centres unmarked) [ABP 6] | 10.3 ± 1.9 | > 8 |
| OC[C@@H]1[C@@H](O)[C@H](O)[C@@H]2N[C@H]12 [Compound 1, β-D-Arabinofuranosyl cyclitol aziridine] | > 50 | > 50 |
| [N-]=[N+]=NCCCCCCCCN1[C@@H]2[C@H](CO)[C@@H](O)[C@H](O)[C@@H]21 (stereo partly drawn) [Compound 2, β-D-arabinofuranosyl cyclitol aziridine-azidooctyl] | 8.15 | – |
